Measured values as given in patent US11446290B2, “Treatment of pain with serotonin-3 receptor agonist” (priority 2017, dated 2022).

Experiments:
Assay type in all cases: in vivo
[1] = tested on: Male ddY mice; assay: Experiment 3: therapeutic effects on pain derived from an emotional component (conditioned pain, saline injection at day 4); conditions: for therapeutic effects on pain derived from an emotional component: experiments using a similar method, dose not given; for therapeutic effect on pain derived from an emotional component: foot licking of uninjected foot and biting for 5 minutes, FIG. 3
[2] = tested on: Male ddY mice; assay: Experiment 1: therapeutic effects on pain, foot licking and biting after formalin administration
[3] = tested on: Male ddY mice; assay: Experiment 4: effect on amount of activity (supermex); conditions: measured for 5 minutes after 30 minutes, FIG. 4
Source text: The following Experiments 1 to 5 have been carried out according to the method described in literatures (M Nakamura-Kitamura et al. Brain Research 1406 (2011), 8-17; and M Nakamura-Kitamura et al. Pain Research 27 (2012), 153-164) with minor modifications.
Male ddY mice of 5 weeks old (Japan SLC) were used in the experiments. Regarding the environment context as external senses and sensory stimuli such as tactile sense, visual sense, and feeling, a black cylindrical polypropylene box (diameter: 9.5 cm, height: 7 cm, with a round petri dish having a diameter of 8.5 cm at the bottom) and a translucent polypropylene box (14 cm (length)×9.5 cm (width)×5 cm (height), with a reticular plate at the floor) were used.
In order to study the effect of Compound A on the amount of activity, Compound A (5 mg/kg or 10 mg/kg) or vehicle (i.e., saline comprising 5% DMSO) was intraperitoneally administered to each mouse, and after 30 minutes, the amount of activity of the mouse was measured for 5 minutes using supermex (Muromachi Kikai Co., Ltd.). In the experiment, the vehicle administration group consisted of 7 mice, the Compound A (5 mg/kg) administration group consisted of 7 mice, and the Compound A (10 mg/kg) administration group consisted of 6 mice.

[4] = tested on: Male ddY mice; assay: Experiment 5: therapeutic effects on acute pain, formalin test phase 1 and phase 2; conditions: 1, 5, 10 mg/kg i.p. 30 minutes before formalin

Cl.Cn1cc(C(=O)C(=O)N[C@H]2CN3CCC2CC3)c2ccccc21 [G, (R)—N-(1-azabicyclo[2.2.2]oct-3-yl)-2-(1-methyl-1H-indol-3-yl)-2-(1-methyl-1H-indol-3-yl)-2-oxoacetamide hydrochloride]
therapeutic effects on pain derived from an emotional component [1]: showed therapeutic effects

NC1CCN(c2cccc(Cl)n2)CC1 [Compound A, 1-(6-chloropyridin-2-yl)piperidin-4-amine]
foot licking and biting caused by formalin ([2]; 5 mg/kg intraperitoneally 30 minutes before formalin (0.67%, 20 μL), measured for 5 minutes, FIG. 1): significantly suppress
therapeutic effect on pain compared to existing drugs ([2]; mouse, in vivo): more excellent therapeutic effect on pain as compared to the existing drugs
effect on the amount of activity ([3]; 5 mg/kg intraperitoneal): no effect
effect on the amount of activity ([3]; 10 mg/kg intraperitoneal): no effect
foot licking and biting caused by formalin, phase 1 ([4]; 0 to 5 minutes after formalin, FIG. 5): dose-dependently and significantly suppress
foot licking and biting caused by formalin, phase 2 ([4]; 5 to 30 minutes after formalin, FIG. 6): dose-dependently and significantly suppress
therapeutic effect on pain derived from an emotional component ([1]; 5 mg/kg intraperitoneally 30 minutes before saline at day 4): very strong therapeutic effect
therapeutic effect on pain derived from an emotional component ([1]; 10 mg/kg intraperitoneally 30 minutes before saline at day 4): very strong therapeutic effect
therapeutic effect on pain derived from an emotional component compared to each existing drug ([1]; mouse, in vivo): significantly excellent therapeutic effect as compared to each existing drug

Cl.N=C(N)NC(=N)Nc1cccc(Cl)c1 [Compound B, m-chlorophenylbiguanide hydrochloride]
therapeutic effects on pain derived from an emotional component [1]: showed therapeutic effects

Cl.N=C(N)NC(=N)Nc1ccccc1 [Compound C, 1-phenylbiguanide hydrochloride]
therapeutic effects on pain derived from an emotional component [1]: showed therapeutic effects

Cc1[nH]c2ccc(O)cc2c1CCN.Cl [Compound F, 2-methyl-5-hydroxytryptamine hydrochloride]
therapeutic effects on pain derived from an emotional component [1]: showed therapeutic effects
